Experimental data published in PubChem BioAssay AID256 (DTP/NCI, 2004).
Where “and” joins values, the source holds several entries; their conditions need not be identical. Identical values can stand only once. Inconclusive results and toxic doses are left out.

System: CD2F1 mice, L1210 leukemia ip, survival T/C
Assay: NCI In Vivo Anticancer Drug Screen. Data for tumor model L1210 Leukemia (intraperitoneal) in CD2F1 (CDF1) mice
Conditions: higher = longer survival
Outline: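 Antitumor effect is scored in animals hosting a serially transplanted tumor. Values compare compound-dosed animals against vehicle-only controls as a simple quotient.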

[1] = endpoint: mean survival time, dose: 50.0 mg/kg/injection, schedule: Q04DX003 (ip), vehicle: saline with Tween-80
[2] = endpoint: mean survival time, dose: 100.0 mg/kg/injection, schedule: Q04DX003 (ip), vehicle: saline with Tween-80
[3] = endpoint: mean survival time, dose: 100.0 mg/kg/injection, schedule: Q01DX001 (ip), vehicle: saline with Tween-80
[4] = endpoint: mean survival time, dose: 200.0 mg/kg/injection, schedule: Q01DX001 (ip), vehicle: saline with Tween-80
[5] = endpoint: mean survival time, dose: 400.0 mg/kg/injection, schedule: Q01DX001 (ip), vehicle: saline with Tween-80
[6] = endpoint: mean survival time, dose: 200.0 mg/kg/injection, schedule: Q04DX003 (ip), vehicle: saline with Tween-80
[7] = endpoint: mean survival time, dose: 400.0 mg/kg/injection, schedule: Q04DX003 (ip), vehicle: saline with Tween-80
[8] = endpoint: mean survival time, dose: 50.0 mg/kg/injection, schedule: Q01DX009 (ip), vehicle: saline with Tween-80
[9] = endpoint: mean survival time, dose: 25.0 mg/kg/injection, schedule: Q01DX009 (ip), vehicle: saline with Tween-80
[10] = endpoint: mean survival time, dose: 100.0 mg/kg/injection, schedule: Q01DX009 (ip), vehicle: saline with Tween-80

CSc1ccc(C(c2ccc(SC)cc2)C(Cl)(Cl)Cl)cc1
T/C [1]: 91 % of control
T/C [2]: 89 % of control

Cn1ccccc1=S
T/C [3]: 108 % of control
T/C [4]: 107 % of control
T/C [5]: 103 % of control

Cn1ncc(C(=O)O)c1[N+](=O)[O-]
T/C (endpoint: mean survival time, dose: 100.0 mg/kg/injection, schedule: Q01DX001 (ip), vehicle: saline): 102 % of control
T/C (endpoint: mean survival time, dose: 200.0 mg/kg/injection, schedule: Q01DX001 (ip), vehicle: saline): 103 % of control
T/C (endpoint: mean survival time, dose: 400.0 mg/kg/injection, schedule: Q01DX001 (ip), vehicle: saline): 94 % of control

COc1ccc(NC(=O)Oc2ccc(NC(C)=O)cc2)c(Cl)c1
T/C (endpoint: mean survival time, dose: 50.0 mg/kg/injection, schedule: Q01DX009 (ip), vehicle: Klucel (hydroxypropylcellulose) (HPC)): 100 % of control
T/C (endpoint: mean survival time, dose: 100.0 mg/kg/injection, schedule: Q01DX009 (ip), vehicle: Klucel (hydroxypropylcellulose) (HPC)): 100 % of control
T/C (endpoint: mean survival time, dose: 200.0 mg/kg/injection, schedule: Q01DX009 (ip), vehicle: Klucel (hydroxypropylcellulose) (HPC)): 107 % of control

N#CC(c1ccccc1)N(c1ccc(NS(=O)(=O)c2ccccc2)cc1)S(=O)(=O)c1ccccc1 (centres undefined)
T/C [3]: 93 % of control
T/C [4]: 96 % of control
T/C [5]: 89 % of control

O=C(Cl)OC1CS(=O)(=O)CC1O (centres undefined)
T/C [2]: 98 % of control
T/C [6]: 98 % of control
T/C [7]: 101 % of control

COC(=O)c1c(CC#N)ncn1C1OC(COC(C)=O)C(OC(C)=O)C1OC(C)=O (centres undefined)
T/C (endpoint: median survival time, dose: 8.25 mg/kg/injection, schedule: Q01DX005 (ip), vehicle: water): 104 % of control
T/C (endpoint: median survival time, dose: 11.25 mg/kg/injection, schedule: Q01DX005 (ip), vehicle: water): 100 % of control
T/C (endpoint: median survival time, dose: 16.5 mg/kg/injection, schedule: Q01DX005 (ip), vehicle: water): 101 % of control
T/C (endpoint: median survival time, dose: 22.5 mg/kg/injection, schedule: Q01DX005 (ip), vehicle: water): 98 % of control
T/C (endpoint: median survival time, dose: 33.0 mg/kg/injection, schedule: Q01DX005 (ip), vehicle: water): 101 % of control
T/C (endpoint: median survival time, dose: 45.0 mg/kg/injection, schedule: Q01DX005 (ip), vehicle: water): 101 % of control
T/C (endpoint: median survival time, dose: 66.0 mg/kg/injection, schedule: Q01DX005 (ip), vehicle: water): 100 % of control
T/C (endpoint: median survival time, dose: 90.0 mg/kg/injection, schedule: Q01DX005 (ip), vehicle: water): 100 % of control
T/C (endpoint: median survival time, dose: 132.0 mg/kg/injection, schedule: Q01DX005 (ip), vehicle: water): 101 % of control
T/C (endpoint: median survival time, dose: 180.0 mg/kg/injection, schedule: Q01DX005 (ip), vehicle: water): 100 % of control

CCC(C)(C)C(=O)O
T/C [2]: 100 % of control
T/C [6]: 103 % of control
T/C [7]: 105 % of control

O=C1c2ccccc2C(=O)c2c(NCCNCCO)ccc(O)c21
T/C (endpoint: mean survival time, dose: 1.25 mg/kg/injection, schedule: Q01DX009 (ip), vehicle: suspension in saline): 100 % of control
T/C (endpoint: mean survival time, dose: 2.5 mg/kg/injection, schedule: Q01DX009 (ip), vehicle: suspension in saline): 101 % of control and 112 % of control
T/C (endpoint: mean survival time, dose: 5.0 mg/kg/injection, schedule: Q01DX009 (ip), vehicle: suspension in saline): 113 % of control and 103 % of control
T/C (endpoint: mean survival time, dose: 7.5 mg/kg/injection, schedule: Q01DX009 (ip), vehicle: saline): 193 % of control
T/C (endpoint: mean survival time, dose: 10.0 mg/kg/injection, schedule: Q01DX009 (ip), vehicle: suspension in saline): 118 % of control and 101 % of control
T/C (endpoint: mean survival time, dose: 15.0 mg/kg/injection, schedule: Q01DX009 (ip), vehicle: saline): 151 % of control
T/C (endpoint: mean survival time, dose: 20.0 mg/kg/injection, schedule: Q01DX009 (ip), vehicle: suspension in saline): 112 % of control
T/C (endpoint: mean survival time, dose: 40.0 mg/kg/injection, schedule: Q01DX009 (ip), vehicle: suspension in saline): 156 % of control
T/C (endpoint: median survival time, dose: 5.0 mg/kg/injection, schedule: Q01DX009 (ip), vehicle: suspension in saline): 123 % of control and 110 % of control
T/C (endpoint: median survival time, dose: 10.0 mg/kg/injection, schedule: Q01DX009 (ip), vehicle: suspension in saline): 115 % of control
T/C (endpoint: median survival time, dose: 20.0 mg/kg/injection, schedule: Q01DX009 (ip), vehicle: suspension in saline): 150 % of control
T/C (endpoint: median survival time, dose: 40.0 mg/kg/injection, schedule: Q01DX009 (ip), vehicle: suspension in saline): 153 % of control and 155 % of control
T/C (endpoint: median survival time, dose: 80.0 mg/kg/injection, schedule: Q01DX009 (ip), vehicle: suspension in saline): 158 % of control and 183 % of control

CC1=CC(=O)C(Sc2ccc(C)cc2)=CC1=O
T/C [8]: 94 % of control

O=C(O)/C=C/C(=O)Nc1ccc(N=Nc2ccccc2)cc1
T/C [2]: 93 % of control
T/C [6]: 98 % of control

COc1cc2c(c3c1c(=O)c1cccc(F)c1n3C)C=CC(C)(C)O2
T/C (endpoint: median survival time, dose: 50.0 mg/kg/injection, schedule: Q01DX009 (ip), vehicle: Klucel (hydroxypropylcellulose) (HPC)): 118 % of control
T/C (endpoint: median survival time, dose: 100.0 mg/kg/injection, schedule: Q01DX009 (ip), vehicle: Klucel (hydroxypropylcellulose) (HPC)): 117 % of control
T/C (endpoint: median survival time, dose: 200.0 mg/kg/injection, schedule: Q01DX009 (ip), vehicle: Klucel (hydroxypropylcellulose) (HPC)): 120 % of control and 90 % of control

CC(C)(C)OC(=O)NC(CSCc1ccccc1)C(=O)Oc1ccc([N+](=O)[O-])cc1 (centres undefined)
T/C [2]: 95 % of control
T/C [6]: 90 % of control
T/C [7]: 86 % of control

COc1ccc(C(=O)N/N=C(\C)[C@]2(O)Cc3c(O)c4c(c(O)c3[C@@H](OC3CC(N)C(O)C(C)O3)C2)C(=O)c2c(OC)cccc2C4=O)cc1 (some centres undefined)
T/C (endpoint: mean survival time, dose: 0.5 mg/kg/injection, schedule: Q01DX009 (ip), vehicle: water): 103 % of control
T/C (endpoint: mean survival time, dose: 1.0 mg/kg/injection, schedule: Q01DX009 (ip), vehicle: water): 112 % of control
T/C (endpoint: mean survival time, dose: 2.0 mg/kg/injection, schedule: Q01DX009 (ip), vehicle: water): 118 % of control
T/C (endpoint: mean survival time, dose: 4.0 mg/kg/injection, schedule: Q01DX009 (ip), vehicle: water): 121 % of control

CC(C)=CCN1C(=O)c2ccccc2C1=O
T/C [9]: 102 % of control
T/C (endpoint: mean survival time, dose: 25.0 mg/kg/injection, schedule: Q04DX003 (ip), vehicle: saline with Tween-80): 101 % of control
T/C [8]: 98 % of control
T/C [1]: 101 % of control
T/C [10]: 96 % of control
T/C [2]: 110 % of control

Cc1cn(C2CC3OP(O)(=S)OCC3O2)c(=O)[nH]c1=O (centres undefined)
T/C (endpoint: mean survival time, dose: 8.7 mg/kg/injection, schedule: Q01DX005 (ip), vehicle: water): 101 % of control
T/C (endpoint: mean survival time, dose: 17.5 mg/kg/injection, schedule: Q01DX005 (ip), vehicle: water): 102 % of control
T/C (endpoint: mean survival time, dose: 35.0 mg/kg/injection, schedule: Q01DX005 (ip), vehicle: water): 101 % of control
T/C (endpoint: mean survival time, dose: 70.0 mg/kg/injection, schedule: Q01DX005 (ip), vehicle: water): 104 % of control

Cc1nc2n3c(nc(C)c13)=CCC2
T/C [9]: 96 % of control
T/C [8]: 98 % of control
T/C [10]: 93 % of control
T/C [2]: 97 % of control

CC(C)(C)N1CC1CNC(=O)C(=O)NCC1CN1C(C)(C)C (centres undefined)
T/C (endpoint: mean survival time, dose: 0.78 mg/kg/injection, schedule: Q01DX009 (ip), vehicle: saline with Tween-80): 100 % of control and 102 % of control
T/C (endpoint: mean survival time, dose: 1.56 mg/kg/injection, schedule: Q01DX009 (ip), vehicle: saline with Tween-80): 103 % of control and 105 % of control
T/C (endpoint: mean survival time, dose: 3.12 mg/kg/injection, schedule: Q01DX009 (ip), vehicle: saline with Tween-80): 114 % of control and 108 % of control
T/C (endpoint: mean survival time, dose: 12.5 mg/kg/injection, schedule: Q01DX009 (ip), vehicle: saline with Tween-80): 171 % of control and 201 % of control
T/C (endpoint: mean survival time, dose: 12.5 mg/kg/injection, schedule: Q01DX009 (oral), vehicle: saline with Tween-80): 150 % of control
T/C (endpoint: median survival time, dose: 3.13 mg/kg/injection, schedule: Q01DX009 (ip), vehicle: saline with Tween-80): 117 % of control
T/C (endpoint: median survival time, dose: 6.25 mg/kg/injection, schedule: Q01DX009 (ip), vehicle: saline with Tween-80): 158 % of control and 171 % of control
T/C (endpoint: median survival time, dose: 12.5 mg/kg/injection, schedule: Q01DX009 (ip), vehicle: saline with Tween-80): 273 % of control and 275 % of control
T/C (endpoint: median survival time, dose: 25.0 mg/kg/injection, schedule: Q01DX009 (ip), vehicle: saline with Tween-80): 117 % of control and 98 % of control

COc1ccn(C2OC(=O)C(C)(C)C2=O)c(=O)n1 (centres undefined)
T/C (endpoint: median survival time, dose: 12.5 mg/kg/injection, schedule: Q01DX005 (ip), vehicle: saline): 101 % of control
T/C (endpoint: median survival time, dose: 25.0 mg/kg/injection, schedule: Q01DX005 (ip), vehicle: saline): 100 % of control
T/C (endpoint: median survival time, dose: 50.0 mg/kg/injection, schedule: Q01DX005 (ip), vehicle: saline): 101 % of control
T/C (endpoint: median survival time, dose: 100.0 mg/kg/injection, schedule: Q01DX005 (ip), vehicle: saline): 101 % of control
T/C (endpoint: median survival time, dose: 200.0 mg/kg/injection, schedule: Q01DX005 (ip), vehicle: saline): 100 % of control
